The values below are quoted from earlier work in PMC8245892, “Pharmacokinetics of a Single Dose of Turmeric Curcuminoids Depends on Formulation: Results of a Human Crossover Study” (The Journal of Nutrition, 2021).

Where a name gives a salt, the structure may show the parent alone.

One may read the Solubility as the dissolved amount per volume that the medium holds.

In data set [1] the test system is phorbol ester–induced PGE2 production. Also on record: method as in PMID 11221833. The conditions noted are these: human cells; compared with unconjugated curcumin.
For data set [2] the following is noted: aqueous buffer (pH 5.0).
Details of data set [3]: method as in PMID 24280069.
The next data set deals with NF-κB. More on the design: method as in PMID 24280069.

With `COc1cc(/C=C/C(O)=C/C(=O)/C=C/c2ccc(OS(=O)(=O)O)c(OC)c2)ccc1O` [curcumin sulfate], the “Reduction of phorbol ester–induced PGE2 production” value in data set [1] is “less effective than unconjugated curcumin”. curcumin: the Solubility in data set [2] was 0.011 µg/mL.

Turning to `COc1cc(C=CC(=O)CC(=O)C=Cc2ccc(OC3OC(C(=O)O)C(O)C(O)C3O)c(OC)c2)ccc1OC1OC(C(=O)O)C(O)C(O)C1O` (stereo not drawn) [diglucuronide], the Antiproliferative activity result in data set [3] is “very little antiproliferative activity”. In addition, the “Effect on NF-κB” value in the data set with NF-κB is recorded as “no effect”. As to `COc1cc(/C=C/C(O)=C/C(=O)/C=C/c2ccc(O[C@@H]3O[C@H](C(=O)O)[C@@H](O)[C@H](O)[C@H]3O)c(OC)c2)ccc1O` [curcumin monoglucuronide], the Antiproliferative activity result in data set [3] is recorded as “very little antiproliferative activity”. Besides, in the data set on NF-κB, the “Effect on NF-κB” value is given as “no effect”.
